Results from PubChem BioAssay AID1918948 (Molecular Pharmacology Branch, DTP, NCI, 2023).
Several values for one entry are separate records, joined by “and”; a condition that tells them apart may be missing. Equal values may be shown once.

Test system: K-562 leukemia growth, % test/control
Assay: Anticancer human tumor K-562 cell line growth inhibition;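 further: spheroids exposed to compounds for 7 days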;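 on viability, T/C: 100% = DMSO vehicle wells and lower values mean fewer viable cells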
Conditions: spheroids with HUVEC and MSC; for viability, T/C: stronger effect = lower value
Excerpt: Multicellular complex tumor spheroid response to LSD1 Inhibitor Iadademstat in combination with a variety of drugs and investigational agents in selected tumor cell lines
The current study was undertaken to assess response to LSD1 inhibitors in combination with standard-of-care drugs and investigational agents in solid tumor complex spheroid models as well as in the K-562 leukemia. Complex spheroids include a stromal component modeled by human endothelial cells (HUVEC) and fibroblasts modeled by human mesenchymal stem cells (MSCs). The concentration ranges selected for each drug and investigational agent were based upon clinically achievable concentrations if the clinical Cmax of the agent was known.
Compounds. The drugs and investigational agents used in this study are listed on Table 1. All of the agents used, including staurosporine (NSC755774) and gemcitabine (NSC613327), were obtained from the Developmental Therapeutics Program, NCI. FDA-approved anticancer drugs are available from the NCI at http://dtp.nci.nih.gov/branches/dscb/oncology_drugset_explanation.html. Drugs and investigational agents were >95% pure by proton nuclear magnetic resonance (NMR) and liquid chromatography/mass spectrometry (LC/MS). Stock solutions were prepared at 400x in DMSO, stored at -70 degrees C, and diluted in fresh medium prior to their use. The final concentration of DMSO in cell culture wells never exceeded 0.25% (v/v). The FDA-approved anticancer drug set is available from the Developmental Therapeutics Program at https://dtp.cancer.gov/organization/dscb/obtaining/available_plates.htm. All drugs and investigational agents were tested over a range starting from a high concentration at or near the clinical Cmax and decreasing in half-log increments. If the clinical Cmax for an agent had not been determined, the highest concentration tested was 10 microM.
Cell Lines. The patient-derived cancer cell (PDC) lines: 292921-168-R-J2-PDC, K24384-001-R-PDC, and 521955-158-R2-J5-PDC pancreatic carcinomas, 556581-035-R-J1 ovarian carcinoma, 324938-238-R-J1-PDC, 855422-203-R-J1-PDC and 883617-216-R-J1-PDC urothelial bladder carcinomas, 743489-274-T-PDC renal cell carcinoma, 138582-R-J1 Merkel cell tumor, K60290-347-R-J1 and K57222-313-R-J1-PDC glioblastomas, 653999-131-R-J2-PDC, LG0703-F948-PDC, and 349418-098-R-PDC non-small cell lung carcinomas, 885512-296-R-J2-PDC, 171881-019-R-J1-PDC breast carcinomas and 186277-243-T-J2-PDC and 233499-124-R-J2-PDC colon carcinomas were obtained from the NCI Patient-Derived Models Repository (PDMR, https://pdmr.cancer.gov). The established cell lines NCI/ADR-RES (RRID:CVCL_14520 and OVCAR-5 (RRID:CVCL_1628) ovarian carcinomas, 786-O (RRID:CVCL_1051) and A498 (RRID:CVCL_A498) renal cell carcinoma, NCI-H211 (ATCC, cat. CRL-5824; RRID:CVCL_1529), NCI-H196 (ATCC, cat. CRL-5823, RRID:CVCL_1509), SW 1271 (ATCC, cat. CRL-2177, RRID:CVCL_1716) and NCI-H1876 (ATCC, cat. CRL-5902, RRID:CVCL_1503) small cell lung carcinomas, MDA-MB-231 (RRID:CVCL_0062) and MDA-MB-468 (RRID:CVCL_0419)breast carcinomas (10-12). Pooled donor human umbilical vein endothelial cells (HUVEC, Lonza, cat. CC-2519) and human mesenchymal stem cells (hMSC, Lonza, cat. PT-2501) were purchased from Lonza (Walkersville, MD).
Cell Culture. All cells were maintained in an incubator at 37 degrees C and 5% CO2 with 95% humidity. The PDC lines were cultured according to standard operating procedures established by the NCI PDMR (https://pdmr.cancer.gov). Briefly all PDCs were thawed and cultured in Matrigel-coated flasks prepared with a working solution of 1X Ham's F-12 nutrient mix, without supplementation (Invitrogen, Waltham, MA, cat. 11765054), 100 U/mL penicillin-streptomycin (Invitrogen, cat. 15140122), and 2.5% Matrigel (Corning Inc., Corning, NY, cat. 354248) for the first three passages. […]

[1] = curve of first compound, second compound 0.1 µM
[2] = curve of first compound, second compound 0.316 µM
[3] = curve of first compound, second compound 1 µM
[4] = curve of first compound, second compound 3.16 µM
[5] = curve of first compound, second compound 10 µM
[6] = second compound 0.1 µM, first compound 0.0316 µM
[7] = second compound 0.1 µM, first compound 0.1 µM
[8] = second compound 0.1 µM, first compound 0.316 µM
[9] = second compound 0.1 µM, first compound 1 µM
[10] = second compound 0.316 µM, first compound 0.0316 µM
[11] = second compound 0.316 µM, first compound 0.1 µM
[12] = second compound 0.316 µM, first compound 0.316 µM
[13] = second compound 0.316 µM, first compound 1 µM
[14] = second compound 1 µM, first compound 0.0316 µM
[15] = second compound 1 µM, first compound 0.1 µM
[16] = second compound 1 µM, first compound 0.316 µM
[17] = second compound 1 µM, first compound 1 µM
[18] = second compound 3.16 µM, first compound 0.0316 µM
[19] = second compound 3.16 µM, first compound 0.1 µM
[20] = second compound 3.16 µM, first compound 0.316 µM
[21] = second compound 3.16 µM, first compound 1 µM
[22] = second compound 10 µM, first compound 0.0316 µM
[23] = second compound 10 µM, first compound 0.1 µM
[24] = second compound 10 µM, first compound 0.316 µM
[25] = second compound 10 µM, first compound 1 µM

SMILES | IC50 [1] [nM] | IC50 [2] [nM] | IC50 [3] [nM] | IC50 [4] [nM] | IC50 [5] [nM] | viability, T/C [6] [%] | viability, T/C [7] [%] | viability, T/C [8] [%] | viability, T/C [9] [%] | viability, T/C [10] [%] | viability, T/C [11] [%] | viability, T/C [12] [%] | viability, T/C [13] [%] | viability, T/C [14] [%] | viability, T/C [15] [%] | viability, T/C [16] [%] | viability, T/C [17] [%] | viability, T/C [18] [%] | viability, T/C [19] [%] | viability, T/C [20] [%] | other results
CC(C)CC(NC(=O)C(Cc1ccccc1)NC(=O)c1cnccn1)B(O)O (stereo unspecified) |  |  |  |  |  |  |  |  |  |  |  |  |  |  |  |  |  |  |  |  | viability, T/C (compound 0.000316 µM): 98.7% and 102%; viability, T/C (compound 0.00316 µM): 18.8% and 1.3%; viability, T/C (compound 0.01 µM): 1.39% and 0.58%; viability, T/C (compound 0.0316 µM): 1.89% and 0.51%; viability, T/C (compound 0.1 µM): 3.68% and 0.49%; IC50 (curve of compound): 2 nM and 0.584 nM
COc1cc(Nc2ncc3c(n2)-c2ccc(Cl)cc2C(c2c(F)cccc2OC)=NC3)ccc1C(=O)O + NC1CC1c1ccc(-c2cccc(O)c2)cc1 | < 3.16 | < 3.16 | < 3.16 | < 3.16 | < 3.16 | 35.4 | 27.7 | 11.1 | 5.75 | 27.8 | 18.3 | 8.22 | 4.56 | 22.4 | 13.9 | 6.56 | 4.05 | 21.4 | 14 | 6.72 | viability, T/C (second compound 0.1 µM, first compound 0.00316 µM): 31.1%; viability, T/C (second compound 0.1 µM, first compound 0.01 µM): 35.4%; viability, T/C (second compound 0.316 µM, first compound 0.00316 µM): 22.8%; viability, T/C (second compound 0.316 µM, first compound 0.01 µM): 27.5%; viability, T/C (second compound 1 µM, first compound 0.00316 µM): 20.2%; viability, T/C (second compound 1 µM, first compound 0.01 µM): 24.4%; viability, T/C (second compound 3.16 µM, first compound 0.00316 µM): 15.5%; viability, T/C (second compound 3.16 µM, first compound 0.01 µM): 21%; viability, T/C [21]: 4.65%; viability, T/C (second compound 10 µM, first compound 0.00316 µM): 10%; viability, T/C (second compound 10 µM, first compound 0.01 µM): 16.6%; viability, T/C [22]: 20.3%; viability, T/C [23]: 11.9%; viability, T/C [24]: 6.15%; viability, T/C [25]: 3.42%
CC(C)c1c(-c2ccccc2)nc2c(C#N)c[nH]n2c1=O + NC1CC1c1ccc(-c2cccc(O)c2)cc1 | > 10000 | > 10000 | > 10000 | > 10000 | > 10000 | 105 | 108 | 102 | 107 | 102 | 103 | 102 | 105 | 97.8 | 103 | 95.5 | 101 | 102 | 97.7 | 100 | viability, T/C (second compound 0.1 µM, first compound 3.16 µM): 111%; viability, T/C (second compound 0.1 µM, first compound 10 µM): 106%; viability, T/C (second compound 0.316 µM, first compound 3.16 µM): 106%; viability, T/C (second compound 0.316 µM, first compound 10 µM): 98.9%; viability, T/C (second compound 1 µM, first compound 3.16 µM): 99.4%; viability, T/C (second compound 1 µM, first compound 10 µM): 96.4%; viability, T/C [21]: 97.2%; viability, T/C (second compound 3.16 µM, first compound 3.16 µM): 99.2%; viability, T/C (second compound 3.16 µM, first compound 10 µM): 95.9%; viability, T/C [22]: 99.4%; viability, T/C [23]: 96.1%; viability, T/C [24]: 96.5%; viability, T/C [25]: 98.3%; viability, T/C (second compound 10 µM, first compound 3.16 µM): 98.3%; viability, T/C (second compound 10 µM, first compound 10 µM): 92%
